Measurements reported in PMC3401419 (Journal of the American Chemical Society, 2012).
Where two headings read alike, the source gives them in different places. Where a SMILES comes first, the peptide text is derived from it.

What was measured:
[1] = biological target: T1, Recombinant human somatic ACE (sACE-1) (Homo sapiens, UniProt P12821); details: pH 7.4
[2] = biological target: T1, Recombinant human somatic ACE (sACE-1); experiment: Time-dependent inactivation of sACE-1 with coreactants; details: pH 7.4, 37 °C, same concentration as corresponding lisinopril complex
[3] = biological target: T1, Recombinant human somatic ACE (sACE-1); experiment: Concentration-dependent inhibition of sACE-1; details: inhibitor and substrate concentration varied, Dixon plots
[4] = biological target: T1, Recombinant human somatic ACE (sACE-1); experiment: biochemical

T1 sequence (P12821 30-1261): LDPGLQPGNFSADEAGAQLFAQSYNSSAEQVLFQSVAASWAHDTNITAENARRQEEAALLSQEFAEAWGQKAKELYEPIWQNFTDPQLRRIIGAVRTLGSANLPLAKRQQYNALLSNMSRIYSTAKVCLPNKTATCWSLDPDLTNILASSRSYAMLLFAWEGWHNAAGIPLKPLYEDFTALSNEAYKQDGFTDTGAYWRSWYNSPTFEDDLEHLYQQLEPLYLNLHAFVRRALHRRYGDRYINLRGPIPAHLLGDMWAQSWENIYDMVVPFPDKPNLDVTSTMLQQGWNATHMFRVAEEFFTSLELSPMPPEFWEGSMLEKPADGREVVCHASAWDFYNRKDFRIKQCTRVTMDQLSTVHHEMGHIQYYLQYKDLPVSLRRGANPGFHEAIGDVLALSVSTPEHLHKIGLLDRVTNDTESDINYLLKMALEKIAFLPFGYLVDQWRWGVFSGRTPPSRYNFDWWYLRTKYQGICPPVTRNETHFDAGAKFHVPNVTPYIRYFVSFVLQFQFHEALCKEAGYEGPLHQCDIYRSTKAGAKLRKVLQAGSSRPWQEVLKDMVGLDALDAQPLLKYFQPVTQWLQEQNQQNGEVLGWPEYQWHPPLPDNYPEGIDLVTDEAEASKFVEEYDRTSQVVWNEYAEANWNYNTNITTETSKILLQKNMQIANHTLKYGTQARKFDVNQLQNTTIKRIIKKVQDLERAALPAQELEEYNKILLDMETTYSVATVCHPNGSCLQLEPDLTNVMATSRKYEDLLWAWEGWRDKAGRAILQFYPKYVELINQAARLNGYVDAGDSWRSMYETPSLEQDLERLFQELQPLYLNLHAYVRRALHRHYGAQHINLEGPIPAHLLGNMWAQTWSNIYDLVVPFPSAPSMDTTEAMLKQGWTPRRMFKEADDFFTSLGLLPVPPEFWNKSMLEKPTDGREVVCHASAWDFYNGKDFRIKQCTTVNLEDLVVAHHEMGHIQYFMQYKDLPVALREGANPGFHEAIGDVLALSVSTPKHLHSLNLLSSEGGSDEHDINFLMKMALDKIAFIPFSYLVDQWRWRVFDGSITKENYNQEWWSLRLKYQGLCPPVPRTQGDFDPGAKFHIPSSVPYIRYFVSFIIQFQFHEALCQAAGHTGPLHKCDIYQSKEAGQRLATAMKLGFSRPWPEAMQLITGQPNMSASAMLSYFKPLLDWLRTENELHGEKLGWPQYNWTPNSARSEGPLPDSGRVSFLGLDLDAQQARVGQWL

Row | Structure (SMILES) | IC50 [1] [µM] | IC50 [4] [µM] | also measured
1 | O=C([O-])CN(CCN(CC(=O)[O-])CC(=O)[O-])CC(=O)[O-].[Cu+2] [Cu-EDTA] | 26 | – | k2 for inactivation of sACE-1, M-chelate without lisinopril (control) ([2]; Ascorbate): 2,000 ± 3,000 {-- ^d} M^−1min^−1; k2 for inactivation of sACE-1, M-chelate without lisinopril (control) ([2]; H2O2): < 3,000 {-- ^d} M^−1min^−1
2 | O=C([O-])CN(CC(=O)[O-])CC(=O)O.[Cu+2] [Cu-NTA] | 36 | – | –
3 | NCCCC[C@H](N[C@@H](CCc1ccccc1)C(=O)O)C(=O)N1CCC[C@H]1C(=O)O [lisinopril] | – | – | mode of inhibition of sACE-1 [3]: competitive
4 | NCC(=O)NCC(=O)N[C@@H](Cc1cnc[nH]1)C(=O)O [GGH] (H-Gly-Gly-His-OH) | > 100 | – | –
5 | O=C(O)CN1CCN(CC(=O)O)CCN(CC(=O)O)CCN(CC(=O)O)CC1 [DOTA, 1,4,7,10-tetraazacyclododecane-1,4,7,10-tetraacetic acid] | – | 7 | –
6 | O=C(O)CN(CCN(CC(=O)O)CC(=O)O)CC(=O)O [EDTA, Ethylenediamine-tetraacetic acid] | – | 7.2 | –
7 | O=C(O)CN(CC(=O)O)CC(=O)O [NTA, Nitrilotriacetic acid] | – | 32 | –
